# Reference: patent US6462037B1, “1,4-benzodiazepin-2-ones useful as HIV reverse transcriptase inhibitors” (Bristol-Myers Squibb Pharma Company, priority 1999, dated 2002)
row,Compound,melting point [°C]
1,"O=C1CN(CCc2cccc(Cl)c2)C(C(F)(F)F)c2cc(Cl)ccc2N1 (stereo not shown) [compound 141, 7-Chloro-4-(2-(3-chlorophenyl)ethyl)-1,5-dihydro-5-(trifluoromethyl)-1,4-benzodiazepin-2-one]",208 to 209
2,"COc1cccc(OC)c1CN1CC(=O)Nc2ccc(Cl)cc2C1C(F)(F)F (stereo not shown) [compound 143, 7-Chloro-4-(2,6-dimethoxybenzyl)-1,5-dihydro-5-(trifluoromethyl)-1,4-benzodiazepin-2-one]",128 to 129
3,"COc1ccc(OC)c(CN2CC(=O)Nc3ccc(Cl)cc3C2C(F)(F)F)c1 (stereo not shown) [compound 144, 7-Chloro-4-(2,5-dimethoxybenzyl)-1,5-dihydro-5-(trifluoromethyl)-1,4-benzodiazepin-2-one]",182 to 183
4,"O=C1CN(c2ccccc2)C(C(F)(F)F)c2cc(Cl)ccc2N1 (stereo not shown) [compound 164, 7-Chloro-4-phenyl-1,5-dihydro-5-(trifluoromethyl)-1,4-benzodiazepin-2-one]",187 to 188
5,"O=C1CN(Cc2ccccc2F)C(C(F)(F)F)c2cc(Cl)ccc2N1 (stereo not shown) [compound 137, 7-Chloro-4-(2-fluorobenzyl)-1,5-dihydro-5-(trifluoromethyl)-1,4-benzodiazepin-2-one]",170 to 171
6,"O=C1C=NC(CCC(F)(F)F)(C(F)(F)F)c2c(ccc(F)c2F)N1 (stereo not shown) [compound 201, 6,7-Difluoro-5-(3,3,3-trifluoropropyl)-1,5-dihydro-5-(trifluoromethyl)-1,4-benzodiazepin-2-one]",160 to 163
7,"CCCN1CC(=O)Nc2ccc(Cl)cc2C1C(F)(F)F (stereo not shown) [compound 106, 7-Chloro-4-propyl-1,5-dihydro-5-(trifluoromethyl)-1,4-benzodiazepin-2-one]",123 to 124
8,"C#CCN1CC(=O)Nc2ccc(Cl)cc2C1C(F)(F)F (stereo not shown) [compound 165, 7-Chloro-4-(2-propynyl)-1,5-dihydro-5-(trifluoromethyl)-1,4-benzodiazepin-2-one]",181 to 182
9,"O=C1C=NC(CC(=O)C2CC2)(C(F)(F)F)c2cc(Cl)ccc2N1 (stereo not shown) [compound 167, 7-Chloro-5-(2-cyclopropyl-2-ethanonyl)-1,5-dihydro-5-(trifluoromethyl)-1,4-benzodiazepin-2-one]",148 to 149
10,"O=C1C=NC(CCc2ccccc2)(C(F)(F)F)c2cc(Cl)ccc2N1 (stereo not shown) [compound 170, 7-Chloro-5-(2-phenylethyl)-1,5-dihydro-5-(trifluoromethyl)-1,4-benzodiazepin-2-one]",182 to 183
11,"O=C1CN(CC#CC2CC2)C(C(F)(F)F)c2cc(Cl)ccc2N1 (stereo not shown) [compound 127, 7-Chloro-4-(3-cyclopropyl-2-propynyl)-1,5-dihydro-5-(trifluoromethyl)-1,4-benzodiazepin-2-one]",121 to 123
12,"O=C1CN(CCc2ccccc2I)C(C(F)(F)F)c2cc(Cl)ccc2N1 (stereo not shown) [compound 140, 7-Chloro-4-(2-(2-iodophenyl)ethyl)-1,5-dihydro-5-(trifluoromethyl)-1,4-benzodiazepin-2-one]",172 to 173
13,"O=C1CN(Cc2cc(F)ccc2F)C(C(F)(F)F)c2cc(Cl)ccc2N1 (stereo not shown) [compound 148, 7-Chloro-4-(2,5-difluorobenzyl)-1,5-dihydro-5-(trifluoromethyl)-1,4-benzodiazepin-2-one]",134 to 135
14,"CCCCCC1(C(F)(F)F)N=C(C)C(=O)Nc2ccccc21 (stereo not shown) [compound 181, 3-Methyl-5-pentyl-1,5-dihydro-5-(trifluoromethyl)-1,4-benzodiazepin-2-one]",139 to 140
15,"CC#CCN1CC(=O)Nc2ccc(Cl)cc2C1C(F)(F)F (stereo not shown) [compound 166, 7-Chloro-4-(2-butynyl)-1,5-dihydro-5-(trifluoromethyl)-1,4-benzodiazepin-2-one]",174 to 175
16,"O=C1C=NC(CC2CC2)(C(F)(F)F)c2cc(Cl)ccc2N1 (stereo not shown) [compound 196, 7-Chloro-5-(cyclopropylmethyl)-1,5-dihydro-5-(trifluoromethyl)-1,4-benzodiazepin-2-one]",105 to 108
17,"CCCCCC1(C(F)(F)F)N=C(CC(C)C)C(=O)Nc2ccc(Cl)cc21 (stereo not shown) [compound 176, 7-Chloro-3-(2-methylpropyl)-5-pentyl-1,5-dihydro-5-(trifluoromethyl)-1,4-benzodiazepin-2-one]",94 to 95
18,"CCCCCCC1(C(F)(F)F)N=CC(=O)Nc2ccc(Cl)cc21 (stereo not shown) [compound 192, 7-Chloro-5-hexyl-1,5-dihydro-5-(trifluoromethyl)-1,4-benzodiazepin-2-one]",115 to 120
19,"CCC#CCN1CC(=O)Nc2ccc(Cl)cc2C1C(F)(F)F (stereo not shown) [compound 149, 7-Chloro-4-(2-pentynyl)-1,5-dihydro-5-(trifluoromethyl)-1,4-benzodiazepin-2-one]",123 to 124
20,"COc1ccccc1CN1CC(=O)Nc2ccc(Cl)cc2C1C(F)(F)F (stereo not shown) [compound 121, 7-Chloro-4-(2-methoxybenzyl)-1,5-dihydro-5-(trifluoromethyl)-1,4-benzodiazepin-2-one]",145 to 146
21,"CC1=NC(CCC2CC2)(C(F)(F)F)c2cc(Cl)ccc2NC1=O (stereo not shown) [compound 194, 7-Chloro-3-methyl-5-(2-cyclopropylethyl)-1,5-dihydro-5-(trifluoromethyl)-1,4-benzodiazepin-2-one]",146 to 148
22,"Cc1ccccc1CN1CC(=O)Nc2ccc(Cl)cc2C1C(F)(F)F (stereo not shown) [compound 113, 7-Chloro-4-(2-methylbenzyl)-1,5-dihydro-5-(trifluoromethyl)-1,4-benzodiazepin-2-one]",197 to 198
23,"CCCCCC1(C(F)(F)F)N=CC(=O)Nc2ccc(Cl)cc21 (stereo not shown) [compound 187, 7-Chloro-5-pentyl-1,5-dihydro-5-(trifluoromethyl)-1,4-benzodiazepin-2-one]",153 to 155
24,"Cc1ncc(CN2CC(=O)Nc3ccc(Cl)cc3C2C(F)(F)F)s1 (stereo not shown) [compound 103, 7-Chloro-4-(2-methyl-5-thiazolylmethyl)-1,5-dihydro-5-(trifluoromethyl)-1,4-benzodiazepin-2-one]",196 to 220
25,"O=C1CN(Cc2ccco2)C(C(F)(F)F)c2cc(Cl)ccc2N1 (stereo not shown) [compound 124, 7-Chloro-4-(2-furanylmethyl)-1,5-dihydro-5-(trifluoromethyl)-1,4-benzodiazepin-2-one]",143 to 145
26,"O=C1CN(Cc2c(F)cccc2F)C(C(F)(F)F)c2cc(Cl)ccc2N1 (stereo not shown) [compound 117, 7-Chloro-4-(2,6-difluorobenzyl)-1,5-dihydro-5-(trifluoromethyl)-1,4-benzodiazepin-2-one]",173 to 174

# More lines, now with the values ahead:
row,melting point [°C],Compound
1,120 to 125,"CC(C)=CCN1CC(=O)Nc2ccc(Cl)cc2C1C(F)(F)F (stereo not shown) [compound 101, 7-Chloro-4-(3-methyl-2-butenyl)-1,5-dihydro-5-(trifluoromethyl)-1,4-benzodiazepin-2-one]"
2,158 to 160,"O=C1C=NC(/C=C\C2CC2)(C(F)(F)F)c2cc(F)ccc2N1 (stereo not shown) [compound 200, 7-Fluoro-5-(2-cyclopropyl-Z-ethenyl)-1,5-dihydro-5-(trifluoromethyl)-1,4-benzodiazepin-2-one]"
3,68 to 70,"CC(C)CCN1CC(=O)Nc2ccc(Cl)cc2C1C(F)(F)F (stereo not shown) [compound 151, 7-Chloro-4-(3-methylbutyl)-1,5-dihydro-5-(trifluoromethyl)-1,4-benzodiazepin-2-one]"
4,107 to 108,"COc1cccc(F)c1CN1CC(=O)Nc2ccc(Cl)cc2C1C(F)(F)F (stereo not shown) [compound 146, 7-Chloro-4-(2-methoxy-6-fluorobenzyl)-1,5-dihydro-5-(trifluoromethyl)-1,4-benzodiazepin-2-one]"
5,156 to 157,"COc1cccc(F)c1CN1CC(=O)Nc2ccc(Cl)cc2C1C(F)(F)F (stereo not shown) [compound 158, 7-Chloro-4-(2-fluoro-6-methoxybenzyl)-1,5-dihydro-5-(trifluoromethyl)-1,4-benzodiazepin-2-one]"
6,160 to 161,"O=C1C=NC(Cc2ccccc2)(C(F)(F)F)c2cc(Cl)ccc2N1 (stereo not shown) [compound 168, 7-Chloro-5-benzyl-1,5-dihydro-5-(trifluoromethyl)-1,4-benzodiazepin-2-one]"
7,151 to 153,"CC(C)CCC1(C(F)(F)F)N=CC(=O)Nc2ccc(Cl)cc21 (stereo not shown) [compound 189, 7-Chloro-5-(3-methylbutyl)-1,5-dihydro-5-(trifluoromethyl)-1,4-benzodiazepin-2-one]"
8,121 to 123,"CCCCC1(C(F)(F)F)N=CC(=O)Nc2ccc(Cl)cc21 (stereo not shown) [compound 128, 7-Chloro-5-butyl-1,5-dihydro-5-(trifluoromethyl)-1,4-benzodiazepin-2-one]"
9,177 to 178,"CCCCC1(C(F)(F)F)c2cc(Cl)ccc2NC(=O)CN1c1ccccc1 (stereo not shown) [compound 159, 7-Chloro-4-phenyl-5-butyl-1,5-dihydro-5-(trifluoromethyl)-1,4-benzodiazepin-2-one]"
10,171 to 172,"O=C1CN(Cc2c(F)cccc2Cl)C(C(F)(F)F)c2cc(Cl)ccc2N1 (stereo not shown) [compound 115, 7-Chloro-4-(2-chloro-6-fluorobenzyl)-1,5-dihydro-5-(trifluoromethyl)-1,4-benzodiazepin-2-one]"
11,174 to 176,"CC(C)C#CC1(C(F)(F)F)c2c(ccc(F)c2F)NC(=O)CN1O (stereo not shown) [compound 133, 6,7-Difluoro-4-hydroxy-5-(3-methyl-1-butynyl)-1,5-dihydro-5-(trifluoromethyl)-1,4-benzodiazepin-2-one]"
12,121 to 122,"COc1ccc(OC)c(CN2CC(=O)Nc3ccc(Cl)cc3C2C(F)(F)F)c1F (stereo not shown) [compound 145, 7-Chloro-4-(2,5-dimethoxy-6-fluorobenzyl)-1,5-dihydro-5-(trifluoromethyl)-1,4-benzodiazepin-2-one]"
13,150 to 152,"CC(C)CCC1(C(F)(F)F)N=CC(=O)Nc2ccc(Cl)cc21 (stereo not shown) [compound 188, 7-Chloro-5-(3-methylbutyl)-1,5-dihydro-5-(trifluoromethyl)-1,4-benzodiazepin-2-one]"
14,89 to 92,"CCCCN1CC(=O)Nc2ccc(Cl)cc2C1C(F)(F)F (stereo not shown) [compound 100, 7-Chloro-4-butyl-1,5-dihydro-5-(trifluoromethyl)-1,4-benzodiazepin-2-one]"
